Columns and labels:
[1] = target: T1, Megakaryocyte-associated tyrosine-protein kinase (Homo sapiens) (UniProt P42679); test: Inhibition of human CTK/MATK using poly[Glu:Tyr] (4:1) as substrate at 1 uM in presence of 32P-ATP by Hotspot assay relative to control; values are per cent of control
T1 sequence (whole entry): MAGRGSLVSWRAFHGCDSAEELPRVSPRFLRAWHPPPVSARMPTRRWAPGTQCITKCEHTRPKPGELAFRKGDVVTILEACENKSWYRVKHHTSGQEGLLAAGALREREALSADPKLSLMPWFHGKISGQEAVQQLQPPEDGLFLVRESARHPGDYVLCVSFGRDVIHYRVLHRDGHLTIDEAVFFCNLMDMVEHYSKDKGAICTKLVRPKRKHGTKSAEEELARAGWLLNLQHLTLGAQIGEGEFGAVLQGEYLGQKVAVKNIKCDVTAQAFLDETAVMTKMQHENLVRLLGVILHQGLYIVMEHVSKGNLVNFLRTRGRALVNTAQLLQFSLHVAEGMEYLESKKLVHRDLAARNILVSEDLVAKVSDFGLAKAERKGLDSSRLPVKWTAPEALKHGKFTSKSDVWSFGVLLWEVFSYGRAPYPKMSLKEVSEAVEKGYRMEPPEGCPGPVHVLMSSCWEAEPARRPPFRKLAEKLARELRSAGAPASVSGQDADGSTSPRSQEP

[2] = target: T2, Inhibitor of nuclear factor kappa-B kinase subunit alpha (Homo sapiens) (UniProt O15111); test: Inhibition of human IKKa/CHUK using KKKKERLLDDRHDSGLDSMKDEE as substrate at 1 uM in presence of 32P-ATP by Hotspot assay relative to control; values are per cent of control
T2 sequence (whole entry): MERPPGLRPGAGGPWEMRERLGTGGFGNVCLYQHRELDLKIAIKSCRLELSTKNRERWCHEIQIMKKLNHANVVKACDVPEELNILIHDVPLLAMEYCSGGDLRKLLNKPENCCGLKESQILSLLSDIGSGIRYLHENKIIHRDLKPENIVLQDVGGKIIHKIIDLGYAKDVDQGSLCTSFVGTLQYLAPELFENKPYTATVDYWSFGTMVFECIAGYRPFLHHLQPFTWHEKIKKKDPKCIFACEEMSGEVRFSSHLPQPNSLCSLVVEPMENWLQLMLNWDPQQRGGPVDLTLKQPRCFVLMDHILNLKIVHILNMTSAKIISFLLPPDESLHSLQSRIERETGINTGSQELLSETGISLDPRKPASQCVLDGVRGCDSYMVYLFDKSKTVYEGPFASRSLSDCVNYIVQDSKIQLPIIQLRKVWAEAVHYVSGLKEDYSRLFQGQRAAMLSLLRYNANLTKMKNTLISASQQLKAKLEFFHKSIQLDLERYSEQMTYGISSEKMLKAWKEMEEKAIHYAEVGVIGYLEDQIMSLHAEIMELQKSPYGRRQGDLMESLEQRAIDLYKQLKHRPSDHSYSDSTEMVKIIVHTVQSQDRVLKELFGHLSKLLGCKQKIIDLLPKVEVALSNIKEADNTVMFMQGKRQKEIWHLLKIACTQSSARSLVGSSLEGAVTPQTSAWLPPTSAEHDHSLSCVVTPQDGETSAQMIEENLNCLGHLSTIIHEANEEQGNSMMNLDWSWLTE

[3] = target: T3, Tyrosine-protein kinase receptor TYRO3 (Homo sapiens) (UniProt Q06418); test: Inhibition of human TYRO3/SKY using poly[Glu:Tyr] (4:1) as substrate at 1 uM in presence of 32P-ATP by Hotspot assay relative to control; values are per cent of control
T3 sequence (whole entry): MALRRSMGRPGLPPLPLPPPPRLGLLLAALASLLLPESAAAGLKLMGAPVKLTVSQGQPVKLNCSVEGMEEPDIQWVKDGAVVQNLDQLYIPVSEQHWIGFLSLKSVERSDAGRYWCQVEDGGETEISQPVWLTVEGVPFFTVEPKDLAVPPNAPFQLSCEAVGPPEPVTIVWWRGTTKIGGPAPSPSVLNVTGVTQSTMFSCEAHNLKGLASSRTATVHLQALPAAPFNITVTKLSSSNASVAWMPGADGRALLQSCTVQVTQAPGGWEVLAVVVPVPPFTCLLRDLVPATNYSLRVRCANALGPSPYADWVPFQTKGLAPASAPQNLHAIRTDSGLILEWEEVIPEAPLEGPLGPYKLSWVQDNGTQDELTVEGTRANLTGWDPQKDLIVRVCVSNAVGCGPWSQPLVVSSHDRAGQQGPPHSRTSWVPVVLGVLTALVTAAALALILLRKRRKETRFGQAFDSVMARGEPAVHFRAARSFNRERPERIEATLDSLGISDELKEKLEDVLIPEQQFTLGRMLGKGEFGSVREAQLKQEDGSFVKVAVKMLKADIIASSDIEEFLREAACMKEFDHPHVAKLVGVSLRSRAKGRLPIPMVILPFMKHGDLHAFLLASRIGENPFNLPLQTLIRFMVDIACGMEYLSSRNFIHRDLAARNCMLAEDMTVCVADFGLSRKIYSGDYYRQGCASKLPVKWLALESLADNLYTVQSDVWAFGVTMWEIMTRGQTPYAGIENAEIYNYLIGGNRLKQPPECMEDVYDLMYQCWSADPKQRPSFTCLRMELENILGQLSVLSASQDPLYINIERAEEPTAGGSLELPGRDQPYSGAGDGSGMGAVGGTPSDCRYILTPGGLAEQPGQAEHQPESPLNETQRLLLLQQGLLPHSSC

Compound: CC(C)S(=O)(=O)c1ccc2nccc(Nc3ccc4scnc4c3)c2c1
- residual activity [1]: 98.5%
- residual activity [2]: 88.2%
- residual activity [3]: 84.6%

Compound: Cc1cc(-c2cnc(N)c3c(-c4ccc5scnc5c4)csc23)n(C)n1
- residual activity [1]: 79.2%
- residual activity [2]: 94.8%
- residual activity [3]: 100%

Compound: CNC(=O)c1ccc2c(c1)ncn2-c1ccc(CC(=O)OC(C)(C)C)cc1
- residual activity [1]: 93.7%
- residual activity [2]: 89.9%
- residual activity [3]: 99.3%

Reference: ChEMBL document CHEMBL5649166, “RIP3 induces apoptosis independent of pronecrotic kinase activity” (Mol Cell, 2014)
